type: physicochemical; settings: HPLC on reversed phase columns, method [a]: pH 2.7, 0.1% formic acid in water and acetonitrile, linear gradient 10% to 95% acetonitrile

Row | SMILES | log P
1 | C#Cc1cnc2ccc(C3=NOC(C)(C(=O)N(Cc4cc(F)cc5c4C(C)(C)CCC5)C4CC4)C3)cc2c1 (racemic) [compound 816] | 5.54[a]
2 | CC1(C(=O)NCc2cccnc2O)CC(c2ccc3ncc(Br)cc3c2)=NO1 (racemic) [compound 817] | 1.88[a]
3 | C#Cc1cnc2ccc(C3=NOC(OC)(C(=O)NCCC4CCCO4)C3)cc2c1 (racemic) [compound 818] | 2.11[a]
4 | CC(C)(C)Oc1ncccc1CNC(=O)C1(C)CC(c2ccc3ncc(Br)cc3c2)=NO1 (racemic) [compound 819] | 4.46[a]
5 | C#Cc1cnc2ccc(C3=NOC(OC)(C(=O)NCc4cn(CC)nc4C(F)(F)F)C3)cc2c1 (racemic) [compound 820] | 2.80[a]
6 | CCn1cc(CNC(=O)C2(C)CC(c3ccc4ncc(Br)cc4c3)=NO2)c(C(F)(F)F)n1 (racemic) [compound 821] | 3.13[a]
7 | COC1(C(=O)NCCC2CC2)CC(c2ccc3ncc(Br)cc3c2)=NO1 (racemic) [compound 822] | 3.03[a]
8 | COC1(C(=O)NCCC2CCOC2)CC(c2ccc3ncc(Br)cc3c2)=NO1 (racemic) [compound 823] | 2.27[a]

same assay, conditions: method [a]: HPLC/LC-MS on reversed phase at pH 2.7, 0.1% formic acid in water / acetonitrile, gradient 10% to 95% acetonitrile

Row | SMILES | log P
9 | CCn1cc(CNC(=O)C2(C)ON=C(c3ccc4ncc(Br)cc4c3)C2OC)c(C)n1 (mixture of isomers) [compound 433] | 2.44[a]
10 | C#Cc1cnc2ccc(C3=NOC(C)(C(=O)NCCCN(C)C)C3)cc2c1 (racemic) [compound 363] | 1.11[a]
11 | C#Cc1cnc2ccc(C3=NOC(C)(C(=O)NC(C)CCCCCC)C3)cc2c1 (racemic) [compound 367] | 4.19[a]
12 | C#Cc1cnc2ccc(C3=NOC(C)(C(=O)NC(C)CCC(C)C)C3)cc2c1 (racemic) [compound 369] | 3.73[a]
13 | CCCCCCC(C)NC(=O)C1(C)CC(c2ccc3ncc(Br)cc3c2)=NO1 (racemic) [compound 370] | 4.73[a]
14 | CC1CCCC(C)C1NC(=O)C1(C)CC(c2ccc3ncc(Br)cc3c2)=NO1 (racemic) [compound 372] | 4.29[a]
15 | CC(C)(C)ONC(=O)C1(C)CC(c2ccc3ncc(Br)cc3c2)=NO1 (racemic) [compound 373] | 2.66[a]
16 | CC(ONC(=O)C1(C)CC(c2ccc3ncc(Br)cc3c2)=NO1)C1CC1 (racemic) [compound 375] | 2.73[a]
17 | CCn1cc(CNC(=O)C2(C)CC(c3ccc4ncc(-c5ccco5)cc4c3)=NO2)c(C)n1 (racemic) [compound 379] | 2.37[a]
18 | CCn1cc(CNC(=O)C2(C)ON=C(c3ccc4ncc(Br)cc4c3)C2C)c(C)n1 (racemic) [compound 385] | 2.55[a]
19 | CCn1cc(CNC(=O)C2(CC(=O)OC)CC(c3ccc4ncc(Br)cc4c3)=NO2)c(C)n1 (racemic) [compound 386] | 2.31[a]
20 | COC(=O)CC1(C(=O)NC(C)C)CC(c2ccc3ncc(Br)cc3c2)=NO1 (racemic) [compound 387] | 2.66[a]
21 | CCOC1C(c2ccc3ncc(Br)cc3c2)=NOC1(C)C(=O)NC(C)C (racemic) [compound 393] | 3.35[a]
22 | O=C(NC1CC1)C12CC1C(c1ccc3ncc(Br)cc3c1)=NO2 (racemic) [compound 398] | 2.50[a]
23 | CCn1cc(CNC(=O)C23CC2C(c2ccc4ncc(Br)cc4c2)=NO3)c(C)n1 (racemic) [compound 399] | 2.44[a]
24 | CC1(C)OCC(CNC(=O)C23CC2C(c2ccc4ncc(Br)cc4c2)=NO3)O1 (racemic) [compound 400] | 2.75[a]
25 | CCOCCCNC(=O)C12CC1C(c1ccc3ncc(Br)cc3c1)=NO2 (racemic) [compound 401] | 2.84[a]
26 | CC(C)NC(=O)C12ON=C(c3ccc4ncc(Br)cc4c3)C1C2C (racemic) [compound 403] | 3.11[a]
27 | CCn1cc(CNC(=O)C2(CC3CC3)CC(c3ccc4ncc(Br)cc4c3)=NO2)c(C)n1 (racemic) [compound 425] | 3.01[a]
28 | CC(C)NC(=O)C1(C)CC(c2ccc3ncc(NC(=O)OC(C)(C)C)cc3c2)=NO1 (racemic) [compound 430] | 2.77[a]
29 | CCn1cc(CNC(=O)C2(C)CC(c3ccc4nc(C#N)c(I)cc4c3)=NO2)c(C)n1 (racemic) [compound 431] | 2.57[a]
30 | CCn1cc(CNC(=O)C2(C)CC(c3ccc4nc(Cl)c(I)cc4c3)=NO2)c(C)n1 (racemic) [compound 432] | 2.94[a]
31 | CCn1cc(CNC(=O)C2(C)CC(c3ccc4ncc(N)cc4c3)=NO2)c(C)n1 (racemic) [compound 452] | 1.12[a]

same assay, conditions: method [a]: HPLC/LC-MS on reversed phase at pH 2.7, 0.1% formic acid in water / acetonitrile, linear gradient 10% to 95% acetonitrile

Row | SMILES | log P
32 | CCC(C)NC(=O)C1(C)CC(c2cc3cc(Br)cnc3c(F)c2OC)=NO1 (stereo not shown) [compound 27] | 3.29^[a]
33 | CC(C)NC(=O)C1(Cc2ccccc2)CC(c2ccc3ncc(Br)cc3c2)=NO1 (stereo not shown) [compound 57] | 3.87^[a]
34 | O=C(NC1CC1)C1(Cc2ccccc2)CC(c2ccc3ncc(Br)cc3c2)=NO1 (stereo not shown) [compound 60] | 3.46^[a]
35 | CC(C)NC(=O)C1(C(C)C)CC(c2ccc3ncc(Br)cc3c2)=NO1 (stereo not shown) [compound 62] | 3.51^[a]
36 | CC(C)C1(C(=O)NC2CC2)CC(c2ccc3ncc(Br)cc3c2)=NO1 (stereo not shown) [compound 65] | 3.11^[a]
37 | CCCCC1(C(=O)NCc2cn(CC)nc2C)CC(c2ccc3ncc(Br)cc3c2)=NO1 (stereo not shown) [compound 72] | 3.37^[a]
38 | CCCCC1(C(=O)NC(C)C)CC(c2ccc3ncc(Br)cc3c2)=NO1 (stereo not shown) [compound 73] | 4.01^[a]
39 | CC(C)NC(=O)C1(C)CC(c2ccc3ncc([S+](C)[O-])cc3c2)=NO1 (stereo not shown) [compound 77] | 1.49^[a]
40 | CC(C)NC(=O)C1(C)CC(c2ccc3ncc(C#N)cc3c2)=NO1 (stereo not shown) [compound 79] | 2.12^[a]
41 | CC(C)NC(=O)C1(CBr)CC(c2ccc3ncc(Br)cc3c2)=NO1 (stereo not shown) [compound 81] | 3.04^[a]
42 | CC1(C(=O)NCc2cccs2)CC(c2ccc3ncc(Br)cc3c2)=NO1 (stereo not shown) [compound 89] | 3.06^[a]
43 | Cc1ccc(CNC(=O)C2(C)CC(c3ccc4ncc(Br)cc4c3)=NO2)o1 (stereo not shown) [compound 90] | 3.15^[a]

same assay, conditions: method [a]: HPLC/LC-MS on reversed phase at pH 2.7, 0.1% formic acid in water and acetonitrile, linear gradient 10% to 95% acetonitrile

Row | SMILES | Log P
44 | CNC(=O)C1(C)CC(c2ccc3ncccc3c2)=NO1 (stereo not shown) [compound 2] | 1.3^[a]
45 | CC1(C(=O)NC2CC2)CC(c2ccc3ncccc3c2)=NO1 (stereo not shown) [compound 3] | 1.04^[a]
46 | CON(OC)C(=O)C1(C)CC(c2cc3cc(Br)cnc3c(F)c2F)=NO1 (stereo not shown) [compound 9] | 2.92^[a]
47 | CCn1cc(CNC(=O)C2(C)CC(c3cc4cc(Br)cnc4c(F)c3F)=NO2)cn1 (stereo not shown) [compound 13] | 2.5^[a]
48 | CCC(C)NC(=O)C1(C(F)(F)F)CC(c2cc3cc(Br)cnc3c(F)c2F)=NO1 (stereo not shown) [compound 15] | 4.04^[a]
49 | CCOCCCNC(=O)C1(C(F)(F)F)CC(c2cc3cc(Br)cnc3c(F)c2F)=NO1 (stereo not shown) [compound 16] | 3.71^[a]
50 | COc1ccc(CNC(=O)C2(C)CC(c3cc4cc(Br)cnc4c(F)c3F)=NO2)cc1OC (stereo not shown) [compound 19] | 3.02^[a]

same assay, conditions: pH 2.7

Row | SMILES | chromatographic logP
51 | COC(=O)C1(C)CC(c2ccc3ncc(I)cc3c2)=NO1 (stereo not shown) [Compound No. 11-30] | 2.71
52 | CC(C)NC(=O)C1(C)CC(c2ccc3ncc(-c4cccs4)cc3c2)=NO1 (stereo not shown) [Compound No. 144] | 3.04
53 | CC(C)NC(=O)C1(C)CC(c2ccc3ncc(-c4cncnc4)cc3c2)=NO1 (stereo not shown) [Compound No. 258] | 1.79
54 | CCOCCCNC(=O)C1(C(F)F)CC(c2ccc3ncc(Br)cc3c2)=NO1 (stereo not shown) [Compound No. 623, 3-(3-bromoquinolin-6-yl)-5-(difluoromethyl)-N-(3-ethoxypropyl)-4,5-dihydro-1,2-oxazole-5-carboxamide] | 3.06

same assay, conditions: reversed phase HPLC column; HPLC reversed phase, pH 2.7, 0.1% formic acid in water / acetonitrile, linear gradient 10% to 95% acetonitrile; calibration with alkan-2-ones; read-out: log P (HCOOH)

Row | SMILES | chromatographic logP
55 | O/N=C/c1ccc2ncc(Cl)cc2c1 [1-(3-chloroquinolin-6-yl)-N-hydroxymethanimine] | 1.78
56 | O/N=C/c1ccc2ncc(I)cc2c1 [1-(3-iodoquinolin-6-yl)-N-hydroxymethanimine] | 1.98
57 | O/N=C(\Cl)c1ccc2ncc(I)cc2c1 [3-Iodo-N-hydroxyquinoline-6-carboximidoyl chloride] | 2.63
58 | O=Cc1cc2cc(Br)cnc2c(F)c1F [3-bromo-7,8-difluoroquinoline-6-carbaldehyde] | 2.71
59 | O=Cc1ccc2ncc(Br)cc2c1 [3-bromoquinoline-6-carbaldehyde] | 2.08
60 | O/N=C(\Cl)c1ccc2ncc(Cl)cc2c1 [3-chloro-N-hydroxyquinoline-6-carboximidoyl chloride] | 1.96
61 | O=Cc1ccc2ncc(Cl)cc2c1 [3-chloroquinoline-6-carbaldehyde] | 1.96
62 | O=Cc1ccc2ncc(I)cc2c1 [3-iodoquinoline-6-carbaldehyde] | 2.12
63 | CC(C)NC(=O)C1(C)CC(c2ccc3ncc(-c4ccccc4)cc3c2)=NO1 (stereo not shown) [Compound No. 141] | 3.02
64 | CCn1cc(CNC(=O)C23OCCCC2C(c2ccc4ncc(Br)cc4c2)=NO3)c(C)n1 (stereo not shown) [Compound No. 266] | 2.59

— patent publication US9510598B2, “Nitrogen-containing heterocyclic compounds for plant disease control” (BAYER CROPSCIENCE AG, priority 2012, dated 2016)
